# Article PMC7822874, “Chemoprotective antimalarials identified through quantitative high-throughput screening of Plasmodium blood and liver stage parasites” (Scientific Reports, 2021)
# Where two headings read alike, the source gives them in different places.
# Legend:
# [1] = tested on: Plasmodium falciparum Dd2 asexual blood stage parasites; test: microbe, parasite or virus in culture; set-up: species or system Plasmodium falciparum Dd2 in human erythrocytes; single determination (one 11-point concentration-response curve); conditions: Plasmodium falciparum, DD2, Erythrocyte, 72 h; read-out: AC50
# in vitro = conditions: human, HepG2-A16-CD81EGFP cells, uninfected
# HepG2-A16-CD81EGFP cells = conditions: average of 2 wells, repeat 2; for HepG2 viability signal, 1 uM, repeat 2: nominal 1 uM (10 mM stock), […] for 15 mM, 1.2 uM for 12 mM, 2 uM for 20 mM stock; for HepG2 viability signal, 3 uM, repeat 2: nominal 3 uM (10 mM stock), 4.5 uM for 15 mM, 3.6 uM for 12 mM, 6 uM for 20 mM stock
# [2] = tested on: P. berghei-ANKA-GFP-LucCON liver stage parasites in HepG2-A16-CD81EGFP cells; test: P. berghei liver stage Pb-Luc assay, Method 1 (UCSD, 1536-well); format: cell-based, Plasmodium berghei; conditions: Plasmodium berghei, 48 h, average of 2 wells, 1536-well plate; for activity at 1 µM: nominal 1 uM (10 mM stock), […] for 15 mM, 1.2 uM for 12 mM, 2 uM for 20 mM stock; for activity at 3 µM: nominal 3 uM (10 mM stock), 4.5 uM for 15 mM, 3.6 uM for 12 mM, 6 uM for 20 mM stock; for all read-outs here: reference of the scale not given here
# [3] = repeat 1, read-out: Pb-Luc signal, 1 uM, repeat 1
# [4] = repeat 2, read-out: Pb-Luc signal, 1 uM, repeat 2
# [5] = repeat 3, read-out: Pb-Luc signal, 1 uM, repeat 3
# [6] = repeat 1, read-out: Pb-Luc signal, 3 uM, repeat 1
# [7] = repeat 2, read-out: Pb-Luc signal, 3 uM, repeat 2
# [8] = repeat 3, read-out: Pb-Luc signal, 3 uM, repeat 3
SMILES,AC50 [1],"viability at 48 h, 1 µM (in vitro)","viability at 48 h, 3 µM (in vitro)","HepG2 viability signal, 1 uM, repeat 2 (HepG2-A16-CD81EGFP cells)","HepG2 viability signal, 3 uM, repeat 2 (HepG2-A16-CD81EGFP cells)","activity at 1 µM [2, 3]","activity at 1 µM [2, 4]","activity at 1 µM [2, 5]","activity at 3 µM [2, 6]","activity at 3 µM [2, 7]","activity at 3 µM [2, 8]"
Cc1cnc(CC2CCN([S+](=O)([O-])c3ccccc3)CC2)n1Cc1ccccc1 [NCGC00469740-01],5310 nM,94.7%,96.4%,97.06%,98.63%,97.2%,133%,138%,81.1%,76.7%,90.7%
CC1CCCN(Cc2c(O)ccc3c(=O)c(-c4ccccc4Cl)c(C(F)(F)F)oc23)C1 (stereo not drawn) [NCGC00100585-01],841 nM,108%,112%,105.16%,104.39%,99.2%,115%,106%,62.6%,101%,122%
CCOC(=O)c1c(S(=O)(=O)N2CCCC(C(=O)N3CCN(c4cccc(C)c4C)CC3)C2)c(C)n(C)c1C (stereo not drawn) [NCGC00138143-01],1060 nM,96.4%,99.6%,101.67%,102.57%,90.2%,90.3%,120%,83.2%,98.3%,108%
CCN1CCN(Cc2c(O)ccc3c(=O)c(Oc4ccccc4C(C)C)c(C(F)(F)F)oc23)CC1 [NCGC00100599-01],596 nM,97.5%,99.2%,96.13%,100.51%,78.6%,113%,135%,70%,89.4%,121%
Oc1ccccc1-c1cc(-c2cccnc2)c2cncn2c1 [NCGC00412170-01],1720 nM,98.3%,101%,95.01%,100.05%,103%,117%,108%,100%,122%,76.4%
COc1ccccc1CN1COc2ccc3c(oc(=O)c4ccccc43)c2C1 [NCGC00116378-01],2110 nM,106%,108%,104.93%,105.29%,85.6%,85.1%,110%,73.3%,86.8%,88.1%
CCN(Cc1ccccc1)C(=O)CCC[C@@H]1[C@H]2CCCN3CCC[C@@H](CN1C(=O)c1ccccc1)[C@@H]23 [NCGC00429496-01],13300 nM,93.4%,93.8%,99.16%,100.31%,107%,115%,85.5%,89.3%,121%,99.6%
Fc1ccc(N2CCCN(C[C@H]3[C@@H]4CNC[C@@H]43)CC2)cc1 [NCGC00435915-01],8410 nM,102%,124%,103.90%,120.28%,97.7%,120%,120%,53.5%,38.2%,21.5%
COc1cccc(C2C(C(=O)Nc3ccc(C)cc3C)=C(C)Nc3c(C(=O)Nc4ccccc4)cnn32)c1 (stereo not drawn) [NCGC00126286-01],2110 nM,94.8%,99.4%,98.62%,98.36%,97.2%,125%,153%,94.7%,93.4%,100%
